Here are results for four compounds from patent US9464084B2, “P2X7 modulators” (Janssen Pharmaceutica NV, priority 2013, dated 2016).

The Ki is a dissociation constant, usually derived from enzyme kinetics or from competition with a known ligand. In general, IC50 refers to the concentration at which inhibition is half-maximal.

Test [1] deals with T1, P2X7 (Homo sapiens (Human), UniProt Q99572). Description: Radioligand binding, tritiated A-804598, human P2X7-1321N1 cell membranes.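 Note: ki obtained from the binding IC50 after correction for tracer concentration and tracer affinity.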 Particulars: 1 hour at 4° C.
T1 sequence (Q99572 whole entry): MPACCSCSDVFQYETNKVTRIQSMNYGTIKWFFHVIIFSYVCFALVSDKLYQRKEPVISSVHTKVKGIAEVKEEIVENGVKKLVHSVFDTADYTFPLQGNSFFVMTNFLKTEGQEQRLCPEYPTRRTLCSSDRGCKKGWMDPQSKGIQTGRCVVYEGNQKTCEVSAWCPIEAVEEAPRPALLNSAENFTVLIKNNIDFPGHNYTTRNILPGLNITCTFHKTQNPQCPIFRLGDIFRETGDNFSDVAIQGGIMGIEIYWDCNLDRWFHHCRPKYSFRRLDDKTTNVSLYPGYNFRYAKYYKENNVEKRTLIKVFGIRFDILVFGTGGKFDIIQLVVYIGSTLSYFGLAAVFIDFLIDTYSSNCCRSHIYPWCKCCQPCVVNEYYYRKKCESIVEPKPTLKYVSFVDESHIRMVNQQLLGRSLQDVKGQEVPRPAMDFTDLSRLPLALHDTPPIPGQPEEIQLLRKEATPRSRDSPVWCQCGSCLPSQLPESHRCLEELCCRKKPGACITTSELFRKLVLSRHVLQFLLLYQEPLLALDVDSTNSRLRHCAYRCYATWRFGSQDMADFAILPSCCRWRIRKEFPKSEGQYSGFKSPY
Procedure: (§1) On the day of the experiment, cell membrane preparations were made according to standard published methods. […] The assay was terminated by filtration (GF/B filters pre-soaked with 0.3% PEI) and washed with washing buffer (Tris-HCl 50 mM). The IC50 generated in the binding assay was corrected for tracer concentration and affinity of the tracer to derive at the affinity (Ki) of the test compounds.
Test [2] deals with T1, P2X7. Nature of the test: P2X7 antagonism in human PBMCs (LPS + Bz-ATP induced IL-1β release, ELISA).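 For all read-outs here: PBMCs from donor human blood, with a further 1.5 h incubation of the cells in the assay.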 Type of test: cell-based. The following applies: LPS 30 ng/ml, Bz-ATP 0.5 mM; for PBMC 10 μM (% control): compound 10 μM.
Test [3] deals with T2, rat P2X7 (Rattus norvegicus (Rat), UniProt Q64663). Description: Ca2+ flux (FLIPR) in 1321N1 cells expressing recombinant rat P2X7 channel.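 Note: Calcium-4 dye fluorescence change read 180 s after agonist addition, following 30 min cell preincubation with test compound.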 Type of test: cell-based. Particulars: 250 μM BzATP.
T2 sequence (Q64663 whole entry): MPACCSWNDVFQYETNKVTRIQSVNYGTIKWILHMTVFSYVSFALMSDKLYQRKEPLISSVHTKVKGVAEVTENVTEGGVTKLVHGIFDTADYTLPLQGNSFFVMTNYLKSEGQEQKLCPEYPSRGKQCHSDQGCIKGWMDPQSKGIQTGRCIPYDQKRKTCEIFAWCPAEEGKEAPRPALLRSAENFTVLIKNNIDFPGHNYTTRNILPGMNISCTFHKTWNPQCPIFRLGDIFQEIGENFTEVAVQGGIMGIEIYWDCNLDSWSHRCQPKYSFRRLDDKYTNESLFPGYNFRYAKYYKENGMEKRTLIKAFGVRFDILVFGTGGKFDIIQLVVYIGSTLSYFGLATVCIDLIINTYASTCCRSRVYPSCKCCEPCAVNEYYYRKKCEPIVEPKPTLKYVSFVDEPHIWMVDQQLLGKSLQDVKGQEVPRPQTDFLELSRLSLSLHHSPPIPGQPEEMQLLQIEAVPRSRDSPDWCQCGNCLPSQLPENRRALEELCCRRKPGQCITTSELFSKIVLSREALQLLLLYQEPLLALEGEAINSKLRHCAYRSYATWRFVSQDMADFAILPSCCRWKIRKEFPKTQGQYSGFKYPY
In test [4] the target is T2, rat P2X7. Description: Radioligand binding, tritiated A-804598, rat P2X7-1321N1 cell membranes. Particulars: 1 hour at 4° C.
Procedure: as §1
The target in test [5] is T1, P2X7. Nature of the test: Ca2+ flux (FLIPR) in 1321N1 cells expressing recombinant human P2X7 channel.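 Note: Calcium-4 dye-loaded cells exposed to compound for 30 min before agonist addition, fluorescence change read 180 s after agonist.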 Type of test: cell-based. Particulars: 250 μM BzATP. On the technique in general: Calcium flux is commonly read through the fluorescence of an indicator in the cells.

For the compound `O=C(c1cccc(C(F)(F)F)c1Cl)N1CCc2c(-c3ccccc3)n[nH]c2C1` [Example 99, (2-Chloro-3-(trifluoromethyl)phenyl)(3-phenyl-4,5-dihydro-1H-pyrazolo[3,4-c]pyridin-6(7H)-yl)methanone], the Ki in test [1] was determined as 81.3 nM; in test [4], 741 nM. Moreover, in test [2] (compound 1 μM), the “PBMC 1 μM (% control)” value is 7.0 % control. Moreover, the IC50 in test [3] came to 195 nM; in test [5], 11.5 nM.

As to `C[C@H]1c2nnn(-c3ccn(C)n3)c2CCN1C(=O)c1cccc(C(F)(F)F)c1Cl` (single isomer, unassigned) [Example 170, (S*)-(2-Chloro-3-(trifluoromethyl)phenyl)(4-methyl-1-(1-methyl-1H-pyrazol-3-yl)-6,7-dihydro-1H-[1,2,3]triazolo[4,5-c]pyridin-5(4H)-yl)methanone], the values for the Ki in test [1] and in test [4] were 20 nM and 3.2 nM, respectively. Moreover, in test [2], the “PBMC 10 μM (% control)” value was −5.7 % control. Besides, the IC50 in test [3] stood at 10.2 nM; in test [5] it was 8.9 nM.

Take `Cc1ccnc(-n2nnc3c2CCN(C(=O)c2cccc(C(F)(F)F)c2Cl)[C@@H]3C)n1` [Example 235, (4R)-(2-Chloro-3-(trifluoromethyl)phenyl)(4-methyl-1-(4-methylpyrimidin-2-yl)-6,7-dihydro-1H-[1,2,3]triazolo[4,5-c]pyridin-5(4H)-yl)methanone]: the values for the Ki in test [1] and in test [4] were 14.1 nM and 3.1 nM, respectively. In test [2], the “PBMC 10 μM (% control)” value is recorded as −3.7 % control. The IC50 in test [3] was determined as 6.6 nM; in test [5], 5.4 nM.

As for `C[C@H]1c2nnn(-c3ccn(CCF)n3)c2CCN1C(=O)c1cccc(C(F)(F)F)c1Cl` (single isomer, unassigned) [Example 172, (S*)-(2-Chloro-3-(trifluoromethyl)phenyl)(1-(1-(2-fluoroethyl)-1H-pyrazol-3-yl)-4-methyl-6,7-dihydro-1H-[1,2,3]triazolo[4,5-c]pyridin-5(4H)-yl)methanone], the “PBMC 10 μM (% control)” value in test [2] was −6.0 % control. The IC50 in test [3] is 5.4 nM. Also, in test [4], the Ki was found to be 5 nM.
